# Data: patent publication US8956445B2, “High stability diionic liquid salts” (Sigma-Aldrich Co., priority 2004, dated 2015)
# Read-outs that look alike come from different tables or passages of the source.
# Experiments:
# [1] = Refractive index (Abbe-3L refractometer); type: physicochemical; conditions: 23° C.
# Procedure: (§1) The densities of the ionic liquids or, more correctly, […] (used synonymously except as indicated otherwise explicitly or by context) was determined at 23° C. by placing 2.0 mL of the ionic liquid in a 2.0 mL volumetric tube and weighing by difference. The melting points of the ionic liquids were determined using a Perkin Elmer Pyris 1 Differential Scanning calorimeter (Boston, Mass.). Typical methods involved using a 10° C./min temperature ramp to determine and identify the first and second order thermal transitions. […] For solid compounds, the melting points were verified using a capillary melting point apparatus. Refractive index measurements were conducted at 23° C. using a Bausch & Lomb Abbe-3L refractometer.
# [2] = Density (2.0 mL volumetric tube, weighing by difference); type: physicochemical; conditions: 23° C.
# Procedure: as §1
# [3] = values taken from reference 31, cited from earlier work
# [4] = Solvation interaction parameters by inverse gas-liquid chromatography (Abraham solvation model); type: physicochemical
# Procedure: The preparation of the capillary columns for inverse gas-liquid chromatographic analysis was performed using a previously described procedure.^31 All capillary columns had efficiencies between 2100 to 2500 plates/meter. Characterization of the capillary columns and probe molecule descriptions are listed in supplemental information. Multiple linear regression analysis (MLRA) and statistical calculations were performed using the program Analyse-it (Microsoft, USA).
# We have previously reported that the Abraham solvation model, a linear free energy approach that utilizes inverse gas-liquid chromatography to describe the solvation properties of a liquid, can be used to characterize room temperature ionic liquids.^31 Described by equation 1, the model provides the so-called “interaction parameters” (r, s, a, b, l) by using multiple linear regression analysis to fit the retention factor (k, determined chromatographically) to the solute descriptors (R2, π2^H, α2^H, β2^H, log L^16) for a wide variety of probe solute molecules. […] The solvation properties of four dicationic ionic liquids (see Table 4) were evaluated and the interaction parameters compared to those obtained for their traditional monocationic analogues 1-butyl-3-methylimidazolium and 1-butyl-1-methylpyrrolidinium ionic liquids.
# Previously we characterized a large number of room temperature ionic liquids in terms of multiple solvation interactions using the solvation parameter model, shown in equation 3.^44 log k=c+rR2+sπ2^H+aα2^H+bβ2^H+l log L^16 [3] This approach utilizes inverse gas-liquid chromatography and allows the use of a large number of probe molecules to deconvolute solute retention in terms of the type and magnitude of individual solvation interactions. The solute descriptors (R2, π2^H, α2^H, β2^H, log L^16) from Equation 3 are obtained from the literature for many probe molecules containing a variety of functional groups.^45 The retention factor is determined chromatographically. The solute descriptors and retention factors are subjected to multiple linear regression analysis to obtain the interaction parameter coefficients (r, s, a, b, l), which ultimately characterize the stationary phase: r is the ability of the diionic liquid containing-stationary phase to interact with π and n electrons of the solute, s is a measure of the dipolarity/polarizability of the diionic liquid containing-stationary phase, a defines the diionic liquid containing-stationary phase hydrogen bond basicity, b is a measure of the hydrogen bond acidity, and/refers to the ability of the diionic liquid containing-stationary phase to separate adjacent members of a homologous series.^46
# Test solutes used to determine interaction parameters and solvation thermodynamics were dissolved in dichloromethane. A Hewlett-Packard model 5890 gas chromatograph and a Hewlett-Packard 6890 series integrator were used for all separations. Split injection and flame ionization detection were utilized with injection and detection temperatures of 250° C. Helium was used as the carrier gas with a column inlet pressure of 3.1 psi and flow rate of 1.0 mL/min. Methane was used to determine the dead volume of the column. Multiple linear regression analysis and statistical calculations were performed using the program Analyze-it (Microsoft).
compound,measurement,setting,value
"Cc1n(C)cc[n+]1CCCCCCCCC[n+]1ccn(C)c1C.[Br-].[Br-] [C9(m2im)2-Br, 1,9-di(2,3-dimethylimidazolium)nonane di-bromide]",Miscibility with Heptane,,Immiscible
same,Miscibility with Water,,Miscible
"Cc1n(C)cc[n+]1CCC[n+]1ccn(C)c1C.F[P-](F)(F)(F)(F)F.F[P-](F)(F)(F)(F)F [C3(m2im)2-PF6, 1,3-di(2,3-dimethylimidazolium)propane di-hexafluorophosphate]",Miscibility with Heptane,,Immiscible
same,Miscibility with Water,,Immiscible
1-vinyl-3-nonylimidazolium bis[(trifluoromethane)sulfonyl]imidate [nvim-NTf2],Refractive Index,[1],1.445
same,Density,[2],1.28 g/mL
C=Cn1cc[n+](CCCCCCCCC[n+]2ccn(C=C)c2)c1.O=S(=O)([N-]S(=O)(=O)C(F)(F)F)C(F)(F)F.O=S(=O)([N-]S(=O)(=O)C(F)(F)F)C(F)(F)F [C9(vim)2-NTf2],Refractive Index,[1],1.457
same,Density,[2],1.47 g/mL
"CCCC[N+]1(C)CCCC1.O=S(=O)([N-]S(=O)(=O)C(F)(F)F)C(F)(F)F [BMPY—NTf2, 1-butyl-1-methylpyrrolidinium bis[(trifluoromethylsulfonyl)imide]]",a (hydrogen bond basicity),[3]; 40° C.,2.08
same,b (hydrogen bond acidity),[3]; 40° C.,0.16
same,"c (interaction parameter table, constant)",[3]; 40° C.,−2.78
same,l (dispersion forces),[3]; 40° C.,0.68
same,r (interaction via nonbonding and π-electrons),[3]; 40° C.,0
same,s (dipolarity/polarizability),[3]; 40° C.,1.69
same,a (hydrogen bond basicity),[3]; 70° C.,1.78
same,b (hydrogen bond acidity),[3]; 70° C.,0
same,"c (interaction parameter table, constant)",[3]; 70° C.,−2.80
same,l (dispersion forces),[3]; 70° C.,0.56
same,r (interaction via nonbonding and π-electrons),[3]; 70° C.,0
same,s (dipolarity/polarizability),[3]; 70° C.,1.53
same,a (hydrogen bond basicity),[3]; 100° C.,1.55
same,b (hydrogen bond acidity),[3]; 100° C.,0
same,"c (interaction parameter table, constant)",[3]; 100° C.,−2.92
same,l (dispersion forces),[3]; 100° C.,0.48
same,r (interaction via nonbonding and π-electrons),[3]; 100° C.,0
same,s (dipolarity/polarizability),[3]; 100° C.,1.44
"C[N+]1(CCCCCCCCC[N+]2(C)CCCC2)CCCC1.F[P-](F)(F)(F)(F)F.F[P-](F)(F)(F)(F)F [C9(mpy)2-PF6, 1,9-di(methylpyrrolidinium)nonane di-hexafluorophosphate]",Miscibility with Heptane,,Immiscible
same,Miscibility with Water,,Immiscible
"Cc1n(C)cc[n+]1CCC[n+]1ccn(C)c1C.O=S(=O)([N-]S(=O)(=O)C(F)(F)F)C(F)(F)F.O=S(=O)([N-]S(=O)(=O)C(F)(F)F)C(F)(F)F [C3(m2im)2-NTf2, 1,3-di(2,3-dimethylimidazolium)propane di-bis[(trifluoromethyl)sulfonyl]imidate]",Miscibility with Heptane,,Immiscible
same,Miscibility with Water,,Immiscible
1-vinyl-3-dodecylimidazolium bis[(trifluoromethane)sulfonyl]imidate [dvim-NTf2],Refractive Index,[1],1.448
same,Density,[2],1.23 g/mL
"Cc1n(C)cc[n+]1CCCCCCCCC[n+]1ccn(C)c1C.F[P-](F)(F)(F)(F)F.F[P-](F)(F)(F)(F)F [C9(m2im)2-PF6, 1,9-di(2,3-dimethylimidazolium)nonane di-hexafluorophosphate]",Miscibility with Heptane,,Immiscible
same,Miscibility with Water,,Immiscible
"Cc1n(C)cc[n+]1CCC[n+]1ccn(C)c1C.[Br-].[Br-] [C3(m2im)2-Br, 1,3-di(2,3-dimethylimidaolium)propane di-bromide]",Miscibility with Heptane,,Immiscible
same,Miscibility with Water,,Miscible
C[n+]1ccn(CCCCn2cc[n+](C)c2)c1.O=S(=O)([N-]S(=O)(=O)C(F)(F)F)C(F)(F)F.O=S(=O)([N-]S(=O)(=O)C(F)(F)F)C(F)(F)F [C4(mim)2-NTf2],a (hydrogen bond basicity),[4]; 40° C.,2.11
same,b (hydrogen bond acidity),[4]; 40° C.,0.50
same,"c (interaction parameter table, constant)",[4]; 40° C.,−2.94
same,l (dispersion forces),[4]; 40° C.,0.56
same,r (interaction via nonbonding and π-electrons),[4]; 40° C.,0.25
same,s (dipolarity/polarizability),[4]; 40° C.,2.01
same,a (hydrogen bond basicity),[4]; 70° C.,1.77
same,b (hydrogen bond acidity),[4]; 70° C.,0.45
same,"c (interaction parameter table, constant)",[4]; 70° C.,−2.91
same,l (dispersion forces),[4]; 70° C.,0.44
same,r (interaction via nonbonding and π-electrons),[4]; 70° C.,0.22
same,s (dipolarity/polarizability),[4]; 70° C.,1.78
same,a (hydrogen bond basicity),[4]; 100° C.,1.57
same,b (hydrogen bond acidity),[4]; 100° C.,0.33
same,"c (interaction parameter table, constant)",[4]; 100° C.,−3.06
same,l (dispersion forces),[4]; 100° C.,0.37
same,r (interaction via nonbonding and π-electrons),[4]; 100° C.,0.20
same,s (dipolarity/polarizability),[4]; 100° C.,1.69
"C[N+]1(CCC[N+]2(C)CCCC2)CCCC1.O=S(=O)([N-]S(=O)(=O)C(F)(F)F)C(F)(F)F.O=S(=O)([N-]S(=O)(=O)C(F)(F)F)C(F)(F)F [C3(mpy)2-NTf2, 1,3-di(methylpyrrolidinium)propane di-bis[(trifluoromethyl)sulfonyl]imidate]",Miscibility with Heptane,,Immiscible
same,Miscibility with Water,,Immiscible
"CCCC[N+]1(CCCCCCCCC[N+]2(CCCC)CCCC2)CCCC1.F[P-](F)(F)(F)(F)F.F[P-](F)(F)(F)(F)F [C9(bpy)2-PF6, 1,9-di(butylpyrrolidinium)nonane di-hexafluorophosphate]",Miscibility with Heptane,,Immiscible
same,Miscibility with Water,,Immiscible
"Cn1cc[n+](CCCCCCCCC[n+]2ccn(C)c2)c1.F[P-](F)(F)(F)(F)F.F[P-](F)(F)(F)(F)F [C9(mim)2-PF6, 1,9-di(3-methylimidazolium)nonane di-hexafluorophosphate]",Miscibility with Heptane,,Immiscible
same,Miscibility with Water,,Immiscible
C=Cn1cc[n+](CCCCCCCCCCC[n+]2ccn(C=C)c2)c1.O=S(=O)([N-]S(=O)(=O)C(F)(F)F)C(F)(F)F.O=S(=O)([N-]S(=O)(=O)C(F)(F)F)C(F)(F)F [C11(vim)2-NTf2],Refractive Index,[1],1.457
same,Density,[2],1.44 g/mL
1-vinyl-3-hexylimidazolium bis[(trifluoromethane)sulfonyl]imidate [hvim-NTf2],Refractive Index,[1],1.443
same,Density,[2],1.36 g/mL
C=Cn1cc[n+](CCCCCCCCCCCC[n+]2ccn(C=C)c2)c1.O=S(=O)([N-]S(=O)(=O)C(F)(F)F)C(F)(F)F.O=S(=O)([N-]S(=O)(=O)C(F)(F)F)C(F)(F)F [C12(vim)2-NTf2],Refractive Index,[1],1.458
same,Density,[2],1.42 g/mL
"C[n+]1ccn(CCCCCCn2cc[n+](C)c2)c1.F[P-](F)(F)(F)(F)F.F[P-](F)(F)(F)(F)F [C6(mim)2-PF6, 1,6-di(3-methylimidazolium)hexane di-hexafluorophosphate]",Miscibility with Heptane,,Immiscible
same,Miscibility with Water,,Immiscible
"C[n+]1ccn(CCCCCCn2cc[n+](C)c2)c1.F[B-](F)(F)F.F[B-](F)(F)F [C6(mim)2-BF4, 1,6-di(3-methylimidazolium)hexane di-tetrafluoroborate]",Miscibility with Heptane,,Immiscible
same,Miscibility with Water,,Miscible
